From patent US10294202B2, “Pyrrolidinones as herbicides” (FMC Corporation, priority 2013, dated 2019)

How the values were obtained:
galium = assay: Test A postemergence herbicide test; type: in vivo, Galium aparine; details: for Plant response rating, Galium: 125 g ai/ha, 0 to 100 scale, 0 is no effect, 100 is complete control; for Galium plant response rating (0 to 100 scale, 0 is no effect, 100 is complete control): 500 g ai/ha
Source text: (§1) At the same time, plants selected from these crop and weed species and also blackgrass (Alopecurus myosuroides), and galium (catchweed bedstraw, Galium aparine) were planted in pots containing the same blend of loam soil and sand and treated with postemergence applications of test chemicals formulated in the same manner. Plants ranged in height from 2 to 10 cm and were in the one- to two-leaf stage for the postemergence treatment. Treated plants and untreated controls were maintained in a greenhouse for approximately 10 days, after which time all treated plants were compared to untreated controls and visually evaluated for injury. Plant response ratings, summarized in Table A, are based on a 0 to 100 scale where 0 is no effect and 100 is complete control. A dash (-) response means no test result.

ragweed = assay: Test A pre-/postemergence herbicide test; type: in vivo, Ambrosia elatior; details: for Plant response rating, Ragweed: 0 to 100 scale
Source text: as §1, with “Seeds of plant species selected from bamyardgrass (Echinochloa crus-galli), kochia (Kochia scoparia), ragweed (common ragweed, Ambrosia elatior), ryegrass, Italian (Italian ryegrass, Lolium multiflorum), crabgrass, large (large crabgrass Digitaria sanguinalis), giant foxtail (Setaria faberii), morningglory (Ipomoea spp.), pigweed (Amaranthus retroflexus), velvetleaf (Abutilon theophrasti), wheat (Triticum aestivum), and corn (Zea mays) were planted into a blend of loam soil and sand and treated preemergence with a directed soil spray using test chemicals formulated in a non-phytotoxic solvent mixture which included a surfactant. At” for “At”

blackgrass = assay: Test A postemergence herbicide test; type: in vivo, Alopecurus myosuroides; details: for Plant response rating, Blackgrass: 125 g ai/ha, 0 to 100 scale, 0 is no effect, 100 is complete control; for Blackgrass plant response rating (0 to 100 scale, 0 is no effect, 100 is complete control): 500 g ai/ha
Source text: as §1

kochia = assay: Test A pre-/postemergence herbicide test; type: in vivo, Kochia scoparia; details: for Plant response rating, Kochia: 0 to 100 scale
Source text: as §1, with “Seeds of plant species selected from bamyardgrass (Echinochloa crus-galli), kochia (Kochia scoparia), ragweed (common ragweed, Ambrosia elatior), ryegrass, Italian (Italian ryegrass, Lolium multiflorum), crabgrass, large (large crabgrass Digitaria sanguinalis), giant foxtail (Setaria faberii), morningglory (Ipomoea spp.), pigweed (Amaranthus retroflexus), velvetleaf (Abutilon theophrasti), wheat (Triticum aestivum), and corn (Zea mays) were planted into a blend of loam soil and sand and treated preemergence with a directed soil spray using test chemicals formulated in a non-phytotoxic solvent mixture which included a surfactant. At” for “At”

barnyardgrass = assay: Test A pre-/postemergence herbicide test; type: in vivo, Echinochloa crus-galli
In short: (§2)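 Visual injury ratings, 0 = no effect, 100 = complete control, taken ~10 days after treatment against untreated greenhouse controls. Preemergence: directed soil spray onto seeded loam/sand pots. Postemergence: spray onto plants at one- to two-leaf stage, 2–10 cm tall.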

corn = assay: Test A pre-/postemergence herbicide test; type: in vivo, Zea mays; details: Postemergence; for Plant response rating, Corn: 125 g ai/ha, 0 to 100 scale, 0 is no effect, 100 is complete control; for Corn plant response rating (0 to 100 scale, 0 is no effect, 100 is complete control): 500 g ai/ha
In short: as §2

pigweed = assay: Test A pre-/postemergence herbicide test; type: in vivo, Amaranthus retroflexus; details: for Plant response rating, Pigweed: 0 to 100 scale
In short: as §2

giant foxtail = assay: Test A pre-/postemergence herbicide test; type: in vivo, Setaria faberii; details: for Plant response rating, Foxtail, Giant: 0 to 100 scale
In short: as §2

ryegrass, Italian = assay: Test A pre-/postemergence herbicide test; type: in vivo, Lolium multiflorum; details: for Plant response rating, Ryegrass, Italian: 0 to 100 scale
Source text: as §1, with “Seeds of plant species selected from bamyardgrass (Echinochloa crus-galli), kochia (Kochia scoparia), ragweed (common ragweed, Ambrosia elatior), ryegrass, Italian (Italian ryegrass, Lolium multiflorum), crabgrass, large (large crabgrass Digitaria sanguinalis), giant foxtail (Setaria faberii), morningglory (Ipomoea spp.), pigweed (Amaranthus retroflexus), velvetleaf (Abutilon theophrasti), wheat (Triticum aestivum), and corn (Zea mays) were planted into a blend of loam soil and sand and treated preemergence with a directed soil spray using test chemicals formulated in a non-phytotoxic solvent mixture which included a surfactant. At” for “At”

wheat = assay: Test A pre-/postemergence herbicide test; type: in vivo, Triticum aestivum; details: Postemergence; for Plant response rating, Wheat: 125 g ai/ha, 0 to 100 scale, 0 is no effect, 100 is complete control; for Wheat plant response rating (0 to 100 scale, 0 is no effect, 100 is complete control): 500 g ai/ha
In short: as §2

[1] = 125 g ai/ha, visual rating, 0 no effect, 100 complete control, approximately 10 days, preemergence
[2] = Postemergence, 125 g ai/ha, 0 is no effect, 100 is complete control
[3] = preemergence, 500 g ai/ha, 0 is no effect and 100 is complete control
[4] = 125 g ai/ha, visual rating, 0 to 100 scale, 0 no effect, 100 complete control, approximately 10 days, preemergence
[5] = Postemergence, 125 g ai/ha, 0 to 100 scale, 0 is no effect, 100 is complete control
[6] = preemergence, 500 g ai/ha, 0 to 100 scale, 0 is no effect and 100 is complete control
[7] = preemergence, 500 g ai/ha, 0 to 100 scale (0 no effect, 100 complete control)

| Compound | Plant response rating, Galium (galium) | Galium plant response rating (0 to 100 scale, 0 is no effect, 100 is complete control) (galium) | Plant response rating, Ragweed (ragweed; [1]) | Plant response rating, Ragweed (ragweed; [2]) | Ragweed plant response rating (0 to 100 scale, 0 is no effect, 100 is complete control) (ragweed; Postemergence, 500 g ai/ha) | Plant response rating, Ragweed (ragweed; [3]) | Plant response rating, Blackgrass (blackgrass) | Blackgrass plant response rating (0 to 100 scale, 0 is no effect, 100 is complete control) (blackgrass) | Plant response rating, Kochia (kochia; [1]) | Plant response rating, Kochia (kochia; [2]) | Kochia plant response rating (0 to 100 scale, 0 is no effect, 100 is complete control) (kochia; Postemergence, 500 g ai/ha) | Plant response rating, Kochia (kochia; [3]) | Plant response rating, Barnyardgrass (barnyardgrass; [4]) | Plant response rating, Barnyardgrass (barnyardgrass; [5]) | Barnyardgrass plant response rating (0 to 100 scale, 0 is no effect, 100 is complete control) (barnyardgrass; Postemergence, 500 g ai/ha) | Plant response rating, Corn (corn) | Corn plant response rating (0 to 100 scale, 0 is no effect, 100 is complete control) (corn) | Plant response rating, Pigweed (pigweed; [1]) | Plant response rating, Pigweed (pigweed; [2]) | Pigweed plant response rating (0 to 100 scale, 0 is no effect, 100 is complete control) (pigweed; Postemergence, 500 g ai/ha) | also measured |
| --- | --- | --- | --- | --- | --- | --- | --- | --- | --- | --- | --- | --- | --- | --- | --- | --- | --- | --- | --- | --- | --- |
| Cc1ccc(F)c(NC(=O)C2C(=O)NCC2c2cccc(C(F)(F)F)c2)c1 (racemic) [Compound 183] | 0 | 0 | 0 | 0 | 0 | 0 | 0 | 0 | 0 | 0 | 0 | 0 | 0 | 0 | 0 | 0 | 0 | 0 | 0 | 0 | Plant response rating, Barnyardgrass (barnyardgrass; [6]): 0; Plant response rating, Pigweed (pigweed; [3]): 0; Plant response rating, Foxtail, Giant (giant foxtail; [1]): 0; Plant response rating, Foxtail, Giant (giant foxtail; [2]): 0; Foxtail, Giant plant response rating (0 to 100 scale, 0 is no effect, 100 is complete control) (giant foxtail; Postemergence, 500 g ai/ha): 0; Plant response rating, Foxtail, Giant (giant foxtail; [3]): 0; Plant response rating, Ryegrass, Italian (ryegrass, Italian; [1]): 0; Plant response rating, Ryegrass, Italian (ryegrass, Italian; [2]): 0; Ryegrass, Italian plant response rating (0 to 100 scale, 0 is no effect, 100 is complete control) (ryegrass, Italian; Postemergence, 500 g ai/ha): 0; Plant response rating, Ryegrass, Italian (ryegrass, Italian; [3]): 0; Plant response rating, Wheat (wheat): 0; Wheat plant response rating (0 to 100 scale, 0 is no effect, 100 is complete control) (wheat): 0 |
| O=C1NCC(c2cc(F)cc(F)c2)C1C(=O)Nc1cccc(F)c1F (racemic) [Compound 157] | 40 | 40 | 30 | 20 | 40 | 50 | 30 | 30 | 50 | 20 | 30 | 70 | 90 | 70 | 80 | 50 | 80 | 0 | 0 | 30 | Plant response rating, Barnyardgrass (barnyardgrass; [7]): 90; Plant response rating, Pigweed (pigweed; [3]): 50; Plant response rating, Foxtail, Giant (giant foxtail; [1]): 90; Plant response rating, Foxtail, Giant (giant foxtail; [2]): 80; Foxtail, Giant plant response rating (0 to 100 scale, 0 is no effect, 100 is complete control) (giant foxtail; Postemergence, 500 g ai/ha): 80; Plant response rating, Foxtail, Giant (giant foxtail; preemergence, 500 g ai/ha): 90; Plant response rating, Ryegrass, Italian (ryegrass, Italian; [1]): 30; Plant response rating, Ryegrass, Italian (ryegrass, Italian; [2]): 30; Ryegrass, Italian plant response rating (0 to 100 scale, 0 is no effect, 100 is complete control) (ryegrass, Italian; Postemergence, 500 g ai/ha): 30; Plant response rating, Ryegrass, Italian (ryegrass, Italian; [3]): 60; Plant response rating, Wheat (wheat): 40; Wheat plant response rating (0 to 100 scale, 0 is no effect, 100 is complete control) (wheat): 70 |
| Cc1cc(NC(=O)C2C(=O)NCC2c2cccc(C(F)(F)F)c2)ccc1F (racemic) [Compound 185] | 0 | 0 | 0 | 0 | 0 | 0 | 0 | 20 | 0 | 0 | 0 | 40 | 40 | 40 | 80 | 0 | 20 | 0 | 0 | 0 | Plant response rating, Barnyardgrass (barnyardgrass; [6]): 70; Plant response rating, Pigweed (pigweed; [3]): 20; Plant response rating, Foxtail, Giant (giant foxtail; [1]): 70; Plant response rating, Foxtail, Giant (giant foxtail; [2]): 20; Foxtail, Giant plant response rating (0 to 100 scale, 0 is no effect, 100 is complete control) (giant foxtail; Postemergence, 500 g ai/ha): 80; Plant response rating, Foxtail, Giant (giant foxtail; [3]): 90; Plant response rating, Ryegrass, Italian (ryegrass, Italian; [1]): 0; Plant response rating, Ryegrass, Italian (ryegrass, Italian; [2]): 0; Ryegrass, Italian plant response rating (0 to 100 scale, 0 is no effect, 100 is complete control) (ryegrass, Italian; Postemergence, 500 g ai/ha): 0; Plant response rating, Ryegrass, Italian (ryegrass, Italian; [3]): 20; Plant response rating, Wheat (wheat): 0; Wheat plant response rating (0 to 100 scale, 0 is no effect, 100 is complete control) (wheat): 20 |
| O=C1NCC(c2ccc(OC(F)(F)C(F)F)cc2)C1C(=O)Nc1cccc(F)c1F (racemic) [Compound 172] | 0 | 0 | 0 | 0 | 0 | 0 | 0 | 0 | 30 | 0 | 0 | 30 | 0 | 0 | 20 | 0 | 0 | 0 | 0 | 0 | Plant response rating, Barnyardgrass (barnyardgrass; [7]): 20; Plant response rating, Pigweed (pigweed; [3]): 0; Plant response rating, Foxtail, Giant (giant foxtail; [1]): 20; Plant response rating, Foxtail, Giant (giant foxtail; [2]): 0; Foxtail, Giant plant response rating (0 to 100 scale, 0 is no effect, 100 is complete control) (giant foxtail; Postemergence, 500 g ai/ha): 30; Plant response rating, Foxtail, Giant (giant foxtail; preemergence, 500 g ai/ha): 30; Plant response rating, Ryegrass, Italian (ryegrass, Italian; [1]): 0; Plant response rating, Ryegrass, Italian (ryegrass, Italian; [2]): 0; Ryegrass, Italian plant response rating (0 to 100 scale, 0 is no effect, 100 is complete control) (ryegrass, Italian; Postemergence, 500 g ai/ha): 0; Plant response rating, Ryegrass, Italian (ryegrass, Italian; [3]): 0; Plant response rating, Wheat (wheat): 0; Wheat plant response rating (0 to 100 scale, 0 is no effect, 100 is complete control) (wheat): 0 |
| O=C1NCC(c2ccc(OC(F)(F)C(F)F)cc2)C1C(=O)Nc1ccc(F)c(F)c1F (racemic) [Compound 174] | 0 | 0 | 0 | 0 | 0 | 0 | 0 | 0 | 0 | 0 | 0 | 20 | 0 | 0 | 20 | 0 | 0 | 0 | 0 | 0 | Plant response rating, Barnyardgrass (barnyardgrass; [6]): 20; Plant response rating, Pigweed (pigweed; [3]): 0; Plant response rating, Foxtail, Giant (giant foxtail; [1]): 30; Plant response rating, Foxtail, Giant (giant foxtail; [2]): 20; Foxtail, Giant plant response rating (0 to 100 scale, 0 is no effect, 100 is complete control) (giant foxtail; Postemergence, 500 g ai/ha): 30; Plant response rating, Foxtail, Giant (giant foxtail; [3]): 50; Plant response rating, Ryegrass, Italian (ryegrass, Italian; [1]): 0; Plant response rating, Ryegrass, Italian (ryegrass, Italian; [2]): 0; Ryegrass, Italian plant response rating (0 to 100 scale, 0 is no effect, 100 is complete control) (ryegrass, Italian; Postemergence, 500 g ai/ha): 0; Plant response rating, Ryegrass, Italian (ryegrass, Italian; [3]): 0; Plant response rating, Wheat (wheat): 0; Wheat plant response rating (0 to 100 scale, 0 is no effect, 100 is complete control) (wheat): 0 |
